We go through ten compounds from patent US11939334B2, “Substituted pyrimido[4,5-b][1,4]diazepines as PLK1 degradation inducers” (UPPTHERA, INC., priority 2021, dated 2024).

pIC50: −log10 of the molar value. Some results are limits rather than exact numbers.

One series addresses T1, PLK1 (Homo sapiens, UniProt P53350).
T1 construct: endogenous in cells; host or cells: HeLa cells stably expressing LgBit, with CRISPR/Cas9 knock-in of HiBit at the endogenous PLK1 locus
Nature of the series: Luciferase assay for PLK1 in HeLa LgBit (Plk1-HiBit KI) cell line. The format is cell-based. The conditions noted are these: 300 nM compound, luminescence after 9 hours. On the procedure: 2. Luciferase Assay for PLK1
(1) Preparation and Culture of HeLa LgBit (Plk1-HiBit KI) Cell Line
A HeLa cell line in which the LgBit vector was transfected and expressed stably was prepared. Then, after constructing gRNA and donor to express the HiBit amino acid sequence behind the C-terminal of the Plk1 gene, which was inherent in the cell, it was inserted into the cell together with a vector capable of expressing CRISPR/Cas9. Only the cells in which the insertion was completed and knock-in had progressed were selected, sub-cultured and used.
(2) Treatment of Compounds of the Present Invention and Method of Luciferase Assay
In the case of HeLa LgBit (Plk1-HiBit KI), the compounds were treated after being released after thymidine block, and the process was as follows. Thymidine (Sigma-Aldrich Cat. No. T9250-5G) was completely dissolved in DW and used in the experiment. For thymidine block, the products were treated with 2 mM of thymidine and then incubated for 24 hours. For release and chemical treatment, the medium was suctioned and washed with 1×PBS. TrypLE™ was added and incubated in 37° C. CO2 incubator for 5 min. Cells neutralized by adding complete media were counted through a counter. For each well of a 96-well culture plate (SPL), 3.3×10^4 cells and a total medium volume of 150 μL were seeded and incubated in a CO2 incubator.
Each cell line was incubated in a CO2 incubator for 18 hours, and Endurazine was added to each well to make up 4% of the total volume. After adding the compound of the present invention in a 96-well white plate (SPL) to a concentration of 300 nM, the wavelength of the plate reader (BMG Labtech, CLARIOstar Plus) was set to […], and then the luminescence was tracked in real time.
The results are shown in Table 2 below and FIGS. 1 and 2.
In Table 2, Activity represents the ratio of the luminescence value of each Exemplary Compound treatment group to DMSO treatment group (+++: <0.3, ++ <0.6, + <0.7).
(In general: The HiBiT peptide binds its large partner to form an active luciferase.)

For another series, the system named is H526 cell line. The experiment in a line: Cell viability assay for H526 cell line. The format is cell-based. The conditions noted are these: Homo sapiens, NCI-H526, 120 h; H526 cells, 5 days, EZ-Cytox, 0.46-3000 nM. On the procedure: 3. Cell Viability Assay for H526 Cell Line
(1) Culture of NCI-H526 Cell Line
(2) Treatment of Compounds of the Present Invention and Method of Cell Viability Assay
After treating the compound to each well to make the total volume of 200 μL, it was cultured in a CO2 incubator (Thermo Fisher Science, Cat. No. 4111) for 5 days.
The absorbance of the completely cultured sample was measured by setting the wavelength of a plate reader (BMG Labtech, CLARIOstar Plus) to […], and was measured after shaking for 3 minutes in a plate reader before measurement.
In Table 3, Activity represents IC50 value of each Exemplary Compound treatment group to H526 cell line (A: <30 nM, B: <50 nM, C: <100 nM, D: <200 nM, E: <400 nM).

Series [1] in a line: Cell viability assay for MRC-5 cell line. The conditions noted are these: human.
Experimental: Cell Viability Assay for MRC-5 Cell Line
(1) Culture of MRC-5 Cell Line
The MRC-5 cell line was purchased from Korea Cell Line Bank (KCLB), Seoul, Korea. Passage of cultured cells was maintained within P15.
6×10^3 cells were seeded for each well of a 96-well plate (SPL), and the cells were cultured in total volume of 150 μL.
Each well was mixed with a medium and treated, and the volume was set to 50 μL, so that the total volume of each well was 200 μL. Then, it was cultured in 37° C.
The following compounds were used as comparative examples, and the cell viability assay was performed in the same manner as in the compounds of Examples.
(3) Cytotoxicity Experiment
After treating EZ-Cytox (DOGEN, Cat. NO. EZ-3000, Lot. No. DLS2112) 20 μL in each well of completely cultured plate, it was cultured in 37° C. CO2 incubator for 4 hours. […] The data were converted into graphs using the Prism (ver. 9) program.

T1 sequence (P53350 whole entry): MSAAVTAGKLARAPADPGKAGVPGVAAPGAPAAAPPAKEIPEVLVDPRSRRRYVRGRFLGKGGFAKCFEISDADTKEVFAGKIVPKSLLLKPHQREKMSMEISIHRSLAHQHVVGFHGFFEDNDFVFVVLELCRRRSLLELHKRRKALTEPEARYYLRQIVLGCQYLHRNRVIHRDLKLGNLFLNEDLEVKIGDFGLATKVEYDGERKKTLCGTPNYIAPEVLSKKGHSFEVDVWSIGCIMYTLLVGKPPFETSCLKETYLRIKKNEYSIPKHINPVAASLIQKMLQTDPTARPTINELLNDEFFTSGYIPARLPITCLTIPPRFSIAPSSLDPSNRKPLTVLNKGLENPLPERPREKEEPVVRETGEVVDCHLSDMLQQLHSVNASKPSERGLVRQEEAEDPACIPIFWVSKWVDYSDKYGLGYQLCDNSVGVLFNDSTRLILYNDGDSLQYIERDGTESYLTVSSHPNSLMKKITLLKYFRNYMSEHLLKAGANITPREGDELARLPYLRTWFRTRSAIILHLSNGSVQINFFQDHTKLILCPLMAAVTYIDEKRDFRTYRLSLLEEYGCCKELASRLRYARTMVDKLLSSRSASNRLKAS

Usually pIC50 stands for −log10 of the IC50, conventionally taken in molar units. A lower pIC50 goes with a large IC50. By IC50 is commonly meant the concentration that gives 50% inhibition. Low values mean higher potency, high ones lower potency. As to `COc1cc(C(=O)NC2CCN(C(=O)CCN3CCN(c4cccc(C5CCC(=O)NC5=O)c4)CC3)CC2)ccc1Nc1ncc2c(n1)N(C(C)C)CC1(CC1)C(=O)N2C` (stereo not drawn) [Compound 5, N-(1-(3-(4-(3-(2,6-dioxopiperidin-3-yl)phenyl)piperazin-1-yl)propanoyl)piperidin-4-yl)-4-((9′-isopropyl-5′-methyl-6′-oxo-5′,6′,8′,9′-tetrahydrospiro[cyclopropane-1,7′-pyrimido[4,5-b][1,4]diazepin]-2′-yl)amino)-3-methoxybenzamide], the “Activity: ratio of the luminescence value of each Exemplary Compound treatment group to DMSO treatment group” value (“Activity: ratio” for short) at PLK1 was “++ (++ <0.6)”. This compound showed a pIC50 with H526 cell line greater than 6.70. Also, in series [1] (MRC-5 cells (normal cell line)), the IC50 at 5 days was greater than 10 µM.
Take `COc1cc(C(=O)NC2CCN(C(=O)CCN3CCN(c4cccc(C5CCC(=O)NC5=O)c4)CC3)CC2)ccc1Nc1ncc2c(n1)N(C(C)C)CC(F)(F)C(=O)N2C` (stereo not drawn) [Compound 4, 4-((7,7-difluoro-9-isopropyl-5-methyl-6-oxo-6,7,8,9-tetrahydro-5H-pyrimido[4,5-b][1,4]diazepin-2-yl)amino)-N-(1-(3-(4-(3-(2,6-dioxopiperidin-3-yl)phenyl)piperazin-1-yl)propanoyl)piperidin-4-yl)-3-methoxybenzamide]: on PLK1, the “Activity: ratio” value is on record as “++ (++ <0.6)”. Further, the pIC50 with H526 cell line was greater than 7.52. The compound further displayed an IC50 at 5 days in series [1] (MRC-5 cells (normal cell line)) greater than 10 µM.
`COc1cc(C(=O)NN2CCN(C3CCN(c4ccc(C5CCC(=O)NC5=O)cc4F)C3)CC2)ccc1Nc1ncc2c(n1)N(C(C)C)CC(F)(F)C(=O)N2C` (stereo not drawn) [Compound 38, 4-((7,7-difluoro-9-isopropyl-5-methyl-6-oxo-6,7,8,9-tetrahydro-5H-pyrimido[4,5-b][1,4]diazepin-2-yl)amino)-N-(4-(1-(4-(2,6-dioxopiperidin-3-yl)-2-fluorophenyl)pyrrolidin-3-yl)piperazin-1-yl)-3-methoxybenzamide]: on PLK1, the “Activity: ratio” value is “+++ (+++: <0.3)”. The compound further showed a pIC50 in the series with H526 cell line greater than 7.30. Further, the IC50 at 5 days in series [1] (MRC-5 cells (normal cell line)) was greater than 10 µM.
The like results for `COc1cc(C(=O)NN2CC3(CCN(CC4CCN(c5ccc(C6CCC(=O)NC6=O)cc5F)CC4)CC3)C2)ccc1Nc1ncc2c(n1)N(C(C)C)CC(F)(F)C(=O)N2C` (stereo not drawn) [Compound 23, 4-((7,7-difluoro-9-isopropyl-5-methyl-6-oxo-6,7,8,9-tetrahydro-5H-pyrimido[4,5-b][1,4]diazepin-2-yl)amino)-N-(7-((1-(4-(2,6-dioxopiperidin-3-yl)-2-fluorophenyl)piperidin-4-yl)methyl)-2,7-diazaspiro[3.5]nonan-2-yl)-3-methoxybenzamide] were, in that order, “+++ (+++: <0.3)”, greater than 7.52 and greater than 10 µM.
Turning to `COc1cc(C(=O)NC2CC3(CCN(CC4CCN(c5ccc(C6CCC(=O)NC6=O)cc5F)CC4)CC3)C2)ncc1Nc1ncc2c(n1)N(C(C)C)CC(F)(F)C(=O)N2C` (stereo not drawn) [Compound 22, 5-((7,7-difluoro-9-isopropyl-5-methyl-6-oxo-6,7,8,9-tetrahydro-5H-pyrimido[4,5-b][1,4]diazepin-2-yl)amino)-N-(7-((1-(4-(2,6-dioxopiperidin-3-yl)-2-fluorophenyl)piperidin-4-yl)methyl)-7-azaspiro[3.5]nonan-2-yl)-4-methoxypicolinamide], on PLK1, the “Activity: ratio” value is recorded as “++ (++ <0.6)”. Further, the pIC50 in the series with H526 cell line was greater than 7.30. The compound further had a half-inhibitory concentration (IC50) at 5 days in series [1] greater than 10 µM.
For the compound `COc1cc(C(=O)NC2CC3(CCN(CC4CCN(c5ccc(C6CCC(=O)NC6=O)cc5F)C(C)C4)CC3)C2)ccc1Nc1ncc2c(n1)N(C(C)C)CC(F)(F)C(=O)N2C` (stereo not drawn) [Compound 32, 4-((7,7-difluoro-9-isopropyl-5-methyl-6-oxo-6,7,8,9-tetrahydro-5H-pyrimido[4,5-b][1,4]diazepin-2-yl)amino)-N-(7-((1-(4-(2,6-dioxopiperidin-3-yl)-2-fluorophenyl)-2-methylpiperidin-4-yl)methyl)-7-azaspiro[3.5]nonan-2-yl)-3-methoxybenzamide], on PLK1, the “Activity: ratio” value is listed as “+++ (+++: <0.3)”. In addition, the pIC50 in the series on H526 cell line was greater than 7.52. The IC50 at 5 days in series [1] is greater than 10 µM.
Take `COc1cc(C(=O)NC2CC3(CCN(CC4CCN(c5ccc(C6CCC(=O)NC6=O)cc5F)CC4)CC3)C2)ccc1Nc1ncc2c(n1)N(C(C)C)CC(F)(F)C(=O)N2C` (stereo not drawn) [Compound 13, 4-((7,7-difluoro-9-isopropyl-5-methyl-6-oxo-6,7,8,9-tetrahydro-5H-pyrimido[4,5-b][1,4]diazepin-2-yl)amino)-N-(7-((1-(4-(2,6-dioxopiperidin-3-yl)-2-fluorophenyl)piperidin-4-yl)methyl)-7-azaspiro[3.5]nonan-2-yl)-3-methoxybenzamide]: the “Activity: ratio” value on PLK1 is recorded as “++ (++ <0.6)”. The compound further gave a pIC50 in the series on H526 cell line greater than 7.52. The compound also came in with an IC50 at 5 days in series [1] greater than 10 µM.
For the compound `COc1cc(C(=O)NN2CC3(CCC(CN4CCN(c5ccc(C6CCC(=O)NC6=O)cc5F)CC4)CC3)C2)ccc1Nc1ncc2c(n1)N(C(C)C)CC(F)(F)C(=O)N2C` (stereo not drawn) [Compound 31, 4-((7,7-difluoro-9-isopropyl-5-methyl-6-oxo-6,7,8,9-tetrahydro-5H-pyrimido[4,5-b][1,4]diazepin-2-yl)amino)-N-(7-((4-(4-(2,6-dioxopiperidin-3-yl)-2-fluorophenyl)piperazin-1-yl)methyl)-2-azaspiro[3.5]nonan-2-yl)-3-methoxybenzamide], the “Activity: ratio” value at PLK1 is recorded as “+++ (+++: <0.3)”. The pIC50 in the series with H526 cell line was greater than 7.52. The IC50 at 5 days in series [1] is greater than 10 µM.
For `COc1cc(C(=O)NC2CC23CCN(CC2CCN(c4ccc(C5CCC(=O)NC5=O)cc4F)CC2)CC3)ccc1Nc1ncc2c(n1)N(C(C)C)CC(F)(F)C(=O)N2C` (stereo not drawn) [Compound 46, 4-((7,7-difluoro-9-isopropyl-5-methyl-6-oxo-6,7,8,9-tetrahydro-5H-pyrimido[4,5-b][1,4]diazepin-2-yl)amino)-N-(6-((1-(4-(2,6-dioxopiperidin-3-yl)-2-fluorophenyl)piperidin-4-yl)methyl)-6-azaspiro[2.5]octan-1-yl)-3-methoxybenzamide], in that order: “+++ (+++: <0.3)”, greater than 7.00 and greater than 10 µM.
`COc1cc(C(=O)NC2CC(N(C)CC3CCN(c4ccc(C5CCC(=O)NC5=O)cc4F)CC3)C2)ccc1Nc1ncc2c(n1)N(C(C)C)CC(F)(F)C(=O)N2C` (stereo not drawn) [Compound 44, 4-((7,7-difluoro-9-isopropyl-5-methyl-6-oxo-6,7,8,9-tetrahydro-5H-pyrimido[4,5-b][1,4]diazepin-2-yl)amino)-N-(3-(((1-(4-(2,6-dioxopiperidin-3-yl)-2-fluorophenyl)piperidin-4-yl)methyl)(methyl)amino)cyclobutyl)-3-methoxybenzamide]: the “Activity: ratio” value at PLK1 is given as “+++ (+++: <0.3)”. Moreover, the pIC50 with H526 cell line is greater than 7.52. This compound returned an IC50 at 5 days in series [1] (MRC-5 cells (normal cell line)) greater than 10 µM.
